Measurements from PubChem BioAssay (NCI).
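Each compound was tested at five concentrations against cells in 96-well plates for 48 hours. TGI is the concentration that stops growth completely.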

Key:
Assay in all cases: DTP human tumour cell line panel, 48 h
[1] = test system: SNB-75 CNS
[2] = test system: SN12C renal
[3] = test system: KM20L2 colon
[4] = test system: TK-10 renal
[5] = test system: HOP-62 NSCLC
[6] = test system: HCT-116 colon
[7] = test system: M14 melanoma
[8] = test system: OVCAR-5 ovarian
[9] = test system: SK-MEL-28 melanoma
[10] = test system: 786-0 renal
[11] = test system: LXFL 529 NSCLC
[12] = test system: KM12 colon
[13] = test system: UACC-257 melanoma
[14] = test system: EKVX NSCLC
[15] = test system: OVCAR-8 ovarian
[16] = test system: ACHN renal
[17] = test system: NCI-H23 lung
[18] = test system: K-562 leukemia
[19] = test system: SNB-78 CNS
[20] = test system: OVCAR-4 ovarian
[21] = test system: SW-620 colon
[22] = test system: SF-295 CNS
[23] = test system: SF-539 CNS
[24] = test system: IGROV1 ovarian
[25] = test system: RPMI-8226 leukemia
[26] = test system: A498 renal
[27] = test system: MALME-3M melanoma
[28] = test system: U251 CNS
[29] = test system: A549 NSCLC
[30] = test system: NCI-H460 lung
[31] = test system: XF 498 CNS
[32] = test system: NCI-H226 lung
[33] = test system: M19-MEL melanoma
[34] = test system: HL-60(TB) leukemia
[35] = test system: LOX IMVI melanoma
[36] = test system: RXF-631 renal
[37] = test system: CCRF-CEM leukemia
[38] = test system: UO-31 renal
[39] = test system: DLD-1 colon
[40] = test system: SF-268 CNS
[41] = test system: MOLT-4 leukemia
[42] = test system: DMS 114 small cell lung
[43] = test system: SK-OV-3 ovarian
[44] = test system: OVCAR-3 ovarian
[45] = test system: HT29 colon
[46] = test system: UACC-62 melanoma
[47] = test system: HOP-18 NSCLC
[48] = test system: SNB-19 CNS
[49] = test system: RXF 393 renal
[50] = test system: SR leukemia

Measured: TGI

Oc1ccccc1C=NCc1ccco1
> 100 µM: [1] | [2] | [3] | [4] | [5] | [6] | [7] | [8] | [9] | [10] | [11] | [12] | [13] | [14] | [15] | [16] | [17] | [18] | [19] | [20] | [21] | [22] | [23] | [24] | [25] | [26] | [27] | [28] | [29] | [30] | [31] | [32] | [33] | [34] | [35] | [36] | [37] | [38] | [39] | [40] | [41] | [42] | [43] | [44] | [45] | [46] | [47] | [48] | [49] | [50]
